Experimental data as given in patent USRE47245E1, “Pro-angiogenic peptides and uses thereof” (Susavion Biosciences, Inc., priority 2006, dated 2019).
Where no end group is shown, it is not given here.

Experiments:
[1] = test system: peripheral blood mononuclear cells (PBMCs); assay: Regulation of cytokine release: cytokine antibody array on medium of PBMC cultures; format: cell-based, human
Experimental: To determine whether the peptides regulate induction or inhibition of release of cytokines, cultured peripheral blood mononuclear cells (PBMCs) were treated with one peptide embodiment of the invention and, after 4 hour incubation, the medium was collected and assayed for changes in the amounts of 40 different cytokines. The peptide construct containing four copies of WNSTL (SEQ ID NO:1), illustrated in FIG. 2A, was added at a concentration of 100 nM in each of the assays. The PBMC cultures were established with cells from Cellular Technology, Ltd. (Shaker Heights, Ohio). Approximately 3 million cells of frozen human PBMCs were thawed at 37° C. and transferred to a 50 mL conical tube where 8 mL of wash medium were added slowly. Then an additional 8 mL were added and swirled to mix. The cells were then centrifuged at 330 g for 10 min, the supernatant was removed and the pellet was resuspended in 10 mL wash medium and centrifuged as above. The washed cells were then resuspended in RPMI 1640 medium containing 10% FBS to about 6 million cells per mL and 100 μL of the suspension were added into each well of a 96-well microtiter plate and incubated overnight at 37° C. in humidified 5% CO2. After 24 hr, the medium was replaced with 200 μL fresh RPMI 1640 medium containing 10% FBS and incubated at 37° C. in humidified 5% CO2 for 2 days. For the data shown in TABLE 1, an aliquot of the peptide construct was added to samples in duplicate at a final concentration of 5 nM or 100 nM and incubated at 37° C. in humidified 5% CO2 for 4 hr. For other experiments (data not included), the incubation was continued for 24 hr. The medium was then removed and stored at […]. The samples were analyzed for production of cytokines. One set of control cells was not treated with an experimental agent. A second set of control cells was treated with LPS, the agent commonly used to induce production of a variety of inflammatory cytokines.
Assays of cytokine levels in samples of culture media were performed using methods developed by RayBiotech, Inc. (Norcross, Ga.). In this technology, membrane arrays of antibodies against cytokines were incubated with samples of media. After washing, the array was incubated with a cocktail of all antibodies tagged with biotin. The membrane was then washed free of unbound antibodies and incubated with streptavidin labeled with a fluorescent dye. After a final wash, the membrane arrays were read in a fluorescence detector and the intensities of the spots quantitated to obtain relative values.
One set of control samples was not treated with peptide and a second set of control samples was treated with lipopolysaccharide (LPS) in the absence of the peptide construct. The structure of the construct is illustrated in FIG. 2A. […] The decrease in IL-8 concentration in the peptide-treated sample, as compared with the amount of IL-8 in the sample treated with the proto-typical inflammatory agent LPS, is particularly notable. […] The increase in the proangiogenic PDGF-BB and the decrease in the inflammatory IL-8, without concomitant stimulation of inflammation, are of particular importance with respect to wound healing. […]

[2] = test system: 786-0 human renal cell adenocarcinoma cell line; assay: Pro-angiogenic activity: growth of xenograft tumor in nude mouse; format: in vivo, nude mouse (nu/nu); conditions: 0.05 nmole/gm subcutaneously on alternate days; tumor weight estimated from volume
Experimental: Tumors require vascularization to obtain nutrients to support growth. Therefore, stimulation of growth of a tumor in response to administration of a construct of this invention is an indication of angiogenesis. For this example, a xenograph model system with the nude mouse (nu/nu) was used to determine the effect of peptide on growth of 786-0 human renal cell adenocarcinoma cell line injected into the flank of a mouse so as to induce a tumor. After the tumor was established, peptide was injected subcutaneously on alternate days. The weight of the tumor was estimated by calculation of the volume.
FIG. 4 illustrates data resulting from assays for pro-angiogenic activity for one embodiment of the invention. […] The peptide was also assayed in combination with Sorafenib, an anti-angiogenic drug.

[3] = test system: macrophages in PBMC cultures; assay: Stimulation of phagocytosis: macrophages engulfing microspheres opsonized with anti-HIV antibodies; format: cell-based, human; conditions: PBMC cultures pretreated; control cultures 0 to 3 beads
Experimental: The activity of the peptides to stimulate phagocytosis was assessed by the ability of macrophages to engulf microspheres opsonized with anti-HIV antibodies. A biotin-tagged peptide epitope of a surface protein of HIV-1 was bound to streptavidin on the surface of the beads. An antibody preparation that was raised against this epitope was then bound to the HIV peptide. The beads were then washed and presented to PBMC cultures pretreated with peptides. Macrophages in cultures not treated with peptides had little, if any, phagocytic activity. In multiple control cultures, the number of beads within a macrophage-like cell ranged from 0 to 3. In the cultures treated with peptide constructs containing four copies of the peptide sequences WNSTL (SEQ ID NO:1), NQHTPR (SEQ ID NO:2), or VQATQS (SEQ ID NO:8), an average of 10 beads were counted in each phagocytic cell, with no substantial difference between peptide constructs.

[4] = PBMCs in serum, 4 hr, construct 100 nM

WNSTL: branched construct: four copies of core sequence WNSTL, each via GGGS linker on tri-lysine framework, C-terminal amide (also: four copies, each via GGGS linker on tri-lysine framework, C-terminal amide of construct)
decrease in concentration of several cytokines as compared to untreated control samples ([1]; 4 hr): more than a two-fold decrease | Relative concentration of Eotaxin-2 [1, 4]: 109 | Relative concentration of GCSF [1, 4]: 50 | Relative concentration of ICAM-1 [1, 4]: 44 | Relative concentration of IFN-γ [1, 4]: 103 | Relative concentration of IL-1β [1, 4]: 120 | Relative concentration of IL-4 [1, 4]: 97 | Relative concentration of IL-6sR [1, 4]: 32 | Relative concentration of IL-7 [1, 4]: 93 | Relative concentration of IL-8 [1, 4]: 144 | Relative concentration of IL-10 [1, 4]: 43 | Relative concentration of IL-11 [1, 4]: 49 | Relative concentration of IL-12p40 [1, 4]: 228 | Relative concentration of IL-12p70 [1, 4]: 131 | Relative concentration of MCP-1 [1, 4]: 968 | Relative concentration of PDGF-BB [1, 4]: 159 | Relative concentration of RANTES [1, 4]: 145 | Relative concentration of TIMP-2 [1, 4]: 25 | Relative concentration of sTNF RI [1, 4]: 78 | cytokines induced to higher concentrations: PDGF-BB, IL-1β, IL-4, IL-1, IL-12 and RANTES ([1]; compared to untreated controls, 4 hr): more than two-fold higher | relative IL-6 concentration ([1]; in one experiment, untreated control 98): 93 | growth of the tumor enhanced over the control, factor [2]: 1.7 | average beads counted in each phagocytic cell [3]: 10 beads

IFN-γ: cytokine Interferon-gamma used as comparison treatment [reference compound]
average beads counted in each phagocytic cell [3]: roughly 15 beads

VSNQH: construct containing four copies of core sequence VSNQH (also: four copies of core sequence, branched construct)
Relative concentration of Eotaxin [1, 4]: 47 | Relative concentration of Eotaxin-2 [1, 4]: 470 | Relative concentration of GM-CSF [1, 4]: 96 | Relative concentration of ICAM-1 [1, 4]: 70 | Relative concentration of IFN-γ [1, 4]: 170 | Relative concentration of IL-1α [1, 4]: 322 | Relative concentration of IL-12p40 [1, 4]: 52 | Relative concentration of IL-12p70 [1, 4]: 117 | Relative concentration of IL-15 [1, 4]: 137 | Relative concentration of IL-17 [1, 4]: 21 | Relative concentration of IL-21 [1, 4]: 130 | Relative concentration of IP-10 [1, 4]: 377 | Relative concentration of MCP-2 [1, 4]: 97 | Relative concentration of MIG [1, 4]: 94 | Relative concentration of PDGF-BB [1, 4]: 82 | Relative concentration of TIMP-2 [1, 4]: 285 | Relative concentration of TNF-α [1, 4]: 138 | Relative concentration of TNF-β [1, 4]: 93
